Test results reported in patent US20060242739A1, “Plant nucleotide-sugar pyrophosphatase/phosphodiesterase (nppase), method of obtaining same and use of same in the production of assay devices and in the production of transgenic plants” (Universidad Publica De Navarra, priority 2002, published 2006).

Legend:
[1] = target: T1, NPPase from barley leaves (Hordeum vulgare, UniProt Q687E1); assay: Enzymatic test of soluble NPPase from barley leaves: kinetic parameters, substrate specificity, effectors; settings: for Vmax: Vmax in % in relation to ADPG, NPPase from barley leaves; for effect on NPPase activity (inhibition) / hydrolysis by NPPase (substrate recognition): qualitative; for Km: substrate of NPPase from barley leaves
T1 sequence (Q687E1 19-368): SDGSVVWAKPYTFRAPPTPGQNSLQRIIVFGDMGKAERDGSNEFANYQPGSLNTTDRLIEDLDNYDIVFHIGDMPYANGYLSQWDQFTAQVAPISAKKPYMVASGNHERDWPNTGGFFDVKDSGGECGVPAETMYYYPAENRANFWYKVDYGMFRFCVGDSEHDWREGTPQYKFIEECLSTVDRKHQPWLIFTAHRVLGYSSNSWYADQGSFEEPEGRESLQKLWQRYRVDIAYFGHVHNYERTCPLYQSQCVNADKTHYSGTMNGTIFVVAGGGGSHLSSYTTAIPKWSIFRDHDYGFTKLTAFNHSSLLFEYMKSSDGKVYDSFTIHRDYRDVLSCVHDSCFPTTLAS

NPPase from rice leaves = NPPase from rice leaves (Oryza sativa, UniProt Q0X0G2); assay: Kinetic parameters and substrate specificity of the NPPase from rice leaves; settings: substrate of NPPase from rice leaves
Sequence of NPPase from rice leaves (Q0X0G2 26-623 limits assumed): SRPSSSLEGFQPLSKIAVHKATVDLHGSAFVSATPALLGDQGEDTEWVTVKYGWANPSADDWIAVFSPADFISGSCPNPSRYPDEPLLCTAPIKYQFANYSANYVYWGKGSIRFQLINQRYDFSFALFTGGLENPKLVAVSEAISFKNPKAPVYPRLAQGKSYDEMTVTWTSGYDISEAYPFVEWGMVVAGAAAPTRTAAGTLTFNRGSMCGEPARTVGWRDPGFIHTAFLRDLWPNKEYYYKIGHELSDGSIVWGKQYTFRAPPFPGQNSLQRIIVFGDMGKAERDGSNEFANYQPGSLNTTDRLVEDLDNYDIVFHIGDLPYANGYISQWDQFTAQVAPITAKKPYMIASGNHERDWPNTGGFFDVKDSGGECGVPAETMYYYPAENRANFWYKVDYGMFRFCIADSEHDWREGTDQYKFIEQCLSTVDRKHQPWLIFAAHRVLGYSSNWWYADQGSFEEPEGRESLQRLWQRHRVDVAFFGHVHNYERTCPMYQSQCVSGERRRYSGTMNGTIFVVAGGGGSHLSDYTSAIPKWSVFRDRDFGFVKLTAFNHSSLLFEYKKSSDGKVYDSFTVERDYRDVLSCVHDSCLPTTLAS

Molecule	Vmax [1]	effect on NPPase activity (inhibition) [1]	hydrolysis by NPPase (substrate recognition) [1]	also measured
O=[N+]([O-])c1ccc(OP(=O)(O)O)cc1 [PNPP]	100%	–	–	–
ADP-ribose [ADPribose]	100%	–	–	–
Nc1ncnc2c1ncn2[C@@H]1O[C@H](COP(=O)(O)OP(=O)(O)O)[C@@H](O)[C@H]1O [ADP]	40%	inhibited	–	–
NC(=O)c1ccc[n+]([C@@H]2O[C@H](COP(=O)([O-])OP(=O)(O)OC[C@H]3O[C@@H](n4cnc5c(N)ncnc54)[C@H](OP(=O)(O)O)[C@@H]3O)[C@@H](O)[C@H]2O)c1 [NADP^+]	n.q.	–	–	Km [1]: n.q.
arsenate	–	strongly inhibited	–	–
O=C[C@H](O)[C@@H](O)[C@H](O)[C@H](O)COP(=O)(O)O [G6P, glucose-6-phosphate]	–	–	does not hydrolyse	–
[O]=[Mo](=[O])([O-])[O-] [molybdate]	–	strongly inhibited	–	–
Nc1ncnc2c1ncn2[C@@H]1O[C@H](COP(=O)(O)OP(=O)(O)O[C@H]2O[C@H](CO)[C@@H](O)[C@H](O)[C@@H]2O)[C@@H](O)[C@H]1O [ADPmannose, ADP-mannose]	30%	–	–	–
Nc1ncnc2c1ncn2[C@@H]1O[C@H](COP(=O)(O)O)[C@@H](O)[C@H]1O [PAP, adenosine-5′-phosphate]	n.q.	–	–	Km [1]: n.q.
Nc1nc2c(ncn2[C@@H]2O[C@H](COP(=O)(O)OP(=O)(O)O[C@H]3O[C@H](CO)[C@@H](O)[C@H](O)[C@@H]3O)[C@@H](O)[C@H]2O)c(=O)[nH]1 [GDPmannose, GDP-mannose]	30%	–	–	–
Nc1ncnc2c1ncn2[C@@H]1O[C@H](COP(=O)(O)OS(=O)(=O)O)[C@@H](O)[C@H]1O [APS, adenosine 5′-phosphosulphate]	–	–	–	Vmax (NPPase from rice leaves): 282 μmol min^−1 (mg protein)^−1
Nc1ncnc2c1ncn2[C@@H]1O[C@H](COP(=O)(O)O)[C@@H](O)[C@H]1O [AMP]	–	inhibited	does not hydrolyse	–
O=P(O)(O)OP(=O)(O)O [PPi, inorganic pyrophosphate]	–	–	–	Vmax (NPPase from rice leaves): 176 μmol min^−1 (mg protein)^−1
O=C(O)[C@H](O)COP(=O)(O)O [3-phosphoglycerate]	–	inhibited	does not hydrolyse	–
Nc1ncnc2c1ncn2[C@@H]1O[C@H](COP(=O)(O)OP(=O)(O)O[C@H]2O[C@H](CO)[C@@H](O)[C@H](O)[C@H]2O)[C@@H](O)[C@H]1O [ADPG, ADPglucose]	100%	–	catalyses the hydrolysis	–
O=[N+]([O-])c1ccc(OP(=O)(O)Oc2ccc([N+](=O)[O-])cc2)cc1 [bis-PNPP, bis-paranitrophenylphosphate]	100%	–	hydrolyses	–
OCCS [β-mercaptoethanol]	–	not affected	–	–
Nc1nc2c(ncn2[C@@H]2O[C@H](COP(=O)(O)OP(=O)(O)O[C@H]3O[C@H](CO)[C@@H](O)[C@H](O)[C@H]3O)[C@@H](O)[C@H]2O)c(=O)[nH]1 [GDP-glucose]	–	–	recognizes	–
NC(=O)c1ccc[n+]([C@@H]2O[C@H](COP(=O)(O)OP(=O)(O)OC[C@H]3O[C@@H](n4cnc5c(N)ncnc54)[C@H](O)[C@@H]3O)[C@@H](O)[C@H]2O)c1 [NAD^+]	100%	–	–	–
Nc1ccn([C@@H]2O[C@H](COP(=O)(O)OP(=O)(O)O[C@H]3O[C@H](CO)[C@@H](O)[C@H](O)[C@H]3O)[C@@H](O)[C@H]2O)c(=O)n1 [CDPG, CDP-glucose]	114%	–	–	–
